Test results from US20030003440A1, “Novel CCR5 epitope and antibodies against it” (priority 2001, published 2003).

Columns and labels:
anti-CCR5 Abs = experiment: Epitope mapping of anti-CCR5 Abs on peptide/beads, assayed in the Mip1β binding inhibition assay; design: species or system human; details: for Binding of anti-CCR5 Abs to peptide: Abs from ESN sera bound to peptide/beads, eluted, tested in Mip1β binding inhibition assay, FIG. 1
Description: Coupling of CCR5 peptides to tosyl-activated Dynabeads M280 (Dynal, Oslo, Norway) was obtained following standard procedures. Briefly, 3×10^7 beads were incubated with 9 μg of CCR5 peptides in 50 mM borate buffer pH 9,5 (16 h at 37° C.). After 4 washes in PBS, peptide/beads were ready for use.
Binding of anti-CCR5 specific Igs to peptide/beads was obtained by incubating 9 μg Ig's to 9 μg peptide/beads for 1 h at 4° C. Ig's were eluted in 0.5 M acetic acid, dialyzed against RPMI medium, then tested in Mip1β binding assays and/or in HIV neutralization assays. To establish if the region recognized by anti-CCR5 antibodies corresponds to a conformational epitope, the specific peptide/beads were incubated with 10 mM of βME, and subsequently with 300 mM of N-Ethyl Maleimide (final concentration: 30 mM) for 60 min prior to antibody binding.
The assay was performed as described (Trkola, A. et al., 1996, Nature 384:184). Briefly, 10^6 purified CD4^+ cells in 200 μl of RPMI (Gibco-Life Technologies, Milan, Italy)(containing 0.05 M NaN3, 1% BSA and 25 mM HEPES) were incubated with appropriate dilutions of affinity-purified anti-CCR5 Abs (Example 1); after 45 min of incubation ^125I-Mip1β (Dupont-NEN, Mechelem, Belgium) was added (final concentration 0.1 nM, 0.2 μCi), and the cells were further incubated for 2 h on ice. Unbound radioactivity was separated by centrifugation on a two-step gradient (Grassi, F. et al., 1991, J. Exp. Med. 174:53) in 0.3 ml tubes (Nunc, Roskilde, Denmark) as follows: the lower layer consisted of fetal calf serum (FCS) containing 10% sucrose; the upper layer consisted of 80% silicone (Sigma-Aldrich) and 20% mineral oil (Sigma-Aldrich). The bound radioactivity in the cell pellets was measured in a gamma counter. Serum samples were diluted 1:10 (5 replicas for each sample). A specificity control consisting of a 100-fold excess of unlabeled Mip1β was included in all experiments. The binding of the ^125I-Mip1β to activated CD4^+ cells ranged between 1000 and 6000 CPM. The cut-off value was set at 12% (3 SD above the mean value of the 45 USN serum samples).

peptide 3 from CCR5 = molecular target: T1, peptide 3 from CCR5 (Homo sapiens, UniProt P51681); experiment: Immunization of mice with KLH-conjugated peptide; binding of mice sera to peptide 3 by ELISA; format: in vivo; details: BALB/c mice, i.p. every 15 days, three immunizations, KLH conjugate 50 μg/dose; FIG. 3
T1 construct: made in house; host or cells: chemical solid-phase synthesis
Description: BALB/c mice were immunized i.p. every 15 days with peptide 3 or with an unrelated control peptide (VQGEESNDK); both peptides had previously been conjugated to KLH (50 μg/dose). Serum was monitored for the presence of antibodies against the immunogens. After three immunizations the mice were sacrificed and sera were tested in direct binding on pep 3.
Binding of mice sera to peptide 3 was obtained by ELISA. Microwells plates were coated with Beads/pep 3 (10^7beads). The plates were satured for 1 h with PBS and 3% BSA. Different dilutions of mice antisera ( 1/10, 1/50, 1/250 and 1/1000) were added and incubated for 2 h at r.t. […] The enzimatic reaction was developed and read at 492 nm.

Row | Binding of anti-CCR5 Abs to peptide (anti-CCR5 Abs) | Binding on pep 3 of sera of immunized mice (ELISA) (peptide 3 from CCR5) | Binding of anti-CCR5 Abs to peptide after reduction and alkylation (anti-CCR5 Abs; addition of 2-ME and N-ethyl maleimide) | Substance
1 | no binding |  |  | cMDYQVSSPIYDINYYTSEPC [compound 1]
2 | no binding |  |  | CSSHFPYSQYQFWKNFQTLKc [compound 4]
3 |  | no binding |  | VQGEESNDK [control peptide, unrelated control peptide conjugated to KLH, reference compound]
4 | Specific Ab binding | specific binding | abolished | cYAAAQWDFGNTMCQ (N-terminal Cys added; UniProt P51681 89-102, looked up, fragment) [peptide 3, second external domain of CCR5 (first cysteine loop, aa 89-102) with Cys added at the N-terminus]
5 | no binding |  |  | YYTSEPCQKINVKQIAARLLP [compound 2, peptide of the extramembrane region of CCR5]
6 | no binding |  |  | FQEFFGLNNCSSSNR [compound 5, peptide of the extramembrane region of CCR5]
